According to patent US20190152946A1, “Novel Compounds” (GlaxoSmithKline Intellectual Property Development Limited, priority 2016, published 2019):

Assays:
Assay type in all cases: cell-based
[1] = molecular target: T1, IRAK3 (Homo sapiens, UniProt Q9Y616); test: Expression proteomics in THP-1 cells, IRAK3 level; conditions: IRAK3 protein log2 fold change, 24 h, 1.0 μM
T1 construct: endogenous in cells; host or cells: THP-1
T1 sequence (Q9Y616 1-596): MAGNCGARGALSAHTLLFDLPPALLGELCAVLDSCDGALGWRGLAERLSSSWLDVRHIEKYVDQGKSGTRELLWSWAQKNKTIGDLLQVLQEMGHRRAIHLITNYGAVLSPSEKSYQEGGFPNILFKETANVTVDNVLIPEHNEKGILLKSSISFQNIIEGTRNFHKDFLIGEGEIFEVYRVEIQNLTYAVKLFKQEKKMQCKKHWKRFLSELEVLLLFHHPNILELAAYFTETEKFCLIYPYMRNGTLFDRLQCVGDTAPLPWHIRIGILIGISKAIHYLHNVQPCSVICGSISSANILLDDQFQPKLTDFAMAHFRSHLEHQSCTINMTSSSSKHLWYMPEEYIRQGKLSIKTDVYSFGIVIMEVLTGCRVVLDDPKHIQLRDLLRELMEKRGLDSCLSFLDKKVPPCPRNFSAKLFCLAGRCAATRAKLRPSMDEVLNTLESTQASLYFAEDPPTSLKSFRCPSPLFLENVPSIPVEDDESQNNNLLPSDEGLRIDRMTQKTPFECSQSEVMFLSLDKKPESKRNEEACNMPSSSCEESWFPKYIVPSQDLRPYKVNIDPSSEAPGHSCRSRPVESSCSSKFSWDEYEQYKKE
Procedure: (§1) THP-1 cells were seeded at a concentration of 3×10^6 cells in T175 flasks with 60 mL growth medium (RPM11640+10% FBS). […] of a 10× compound solution prepared in growth medium (DMSO), IAP PROTAC) was added and the cells were treated for the indicated time points (6 or 24 h) at 37° C., 5% CO2. For harvesting the cells were collected into falcon tubes on ice, centrifuged and washed twice in cold PBS (Life technologies). After the last washing step the supernatant was removed and the pellets were snap-frozen in liquid N2 and stored at −80° C. and lysed in 2% SDS for 3 min at 95° C. in a thermomixer (Thermo Fisher Scientific), followed by digestion of DNA with Benzonase at 37° C. for 1.5 h. Lysate was cleared by centrifugation an protein concentration in supernatant was determined by BCA assay.
(§2) Leukemia 25, 89-100 (2011).
(§3) Samples were dried in vacuo and resuspended in 0.05% trifluoroacetic acid in water. […]
(§4) Reporter ion intensities were read from raw data and multiplied with ion accumulation times (the unit is milliseconds) so as to yield a measure proportional to the number of ions;
(§5) Nat Biotech 29, 255-265 (2011). this measure is referred to as ion area Savitski, M. M. et al. Delayed Fragmentation and Optimized Isolation Width Settings for Improvement of Protein Identification and Accuracy of Isobaric Mass Tag Quantification on Orbitrap-Type Mass Spectrometers. […]

[2] = molecular target: T2, AURKA (Homo sapiens, UniProt O14965); test: Expression proteomics in THP-1 cells, AURKA level; conditions: AURKA protein log2 fold change, 24 h, 1.0 μM
T2 construct: endogenous in cells; host or cells: THP-1
T2 sequence (O14965 1-403): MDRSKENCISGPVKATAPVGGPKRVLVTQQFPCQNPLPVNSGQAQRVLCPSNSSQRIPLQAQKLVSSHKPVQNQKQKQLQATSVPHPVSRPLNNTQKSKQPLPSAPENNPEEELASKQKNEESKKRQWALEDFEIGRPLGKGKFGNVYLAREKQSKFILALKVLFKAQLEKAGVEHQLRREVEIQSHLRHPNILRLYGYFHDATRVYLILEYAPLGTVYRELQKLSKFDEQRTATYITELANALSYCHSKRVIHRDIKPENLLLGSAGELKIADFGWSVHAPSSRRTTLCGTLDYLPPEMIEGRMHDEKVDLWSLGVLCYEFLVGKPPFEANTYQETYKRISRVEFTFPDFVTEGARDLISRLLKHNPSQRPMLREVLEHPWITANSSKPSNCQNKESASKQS
Procedure: as §1, §2, §3, §4, §5

[3] = molecular target: T3, BTK (Homo sapiens, UniProt Q06187); test: Expression proteomics in THP-1 cells, BTK level; conditions: BTK protein log2 fold change, 24 h, 1.0 μM
T3 construct: endogenous in cells; host or cells: THP-1
Procedure: as §1, §2, §3, §4, §5

[4] = molecular target: T4, PTK2 (Homo sapiens, UniProt Q05397); test: Expression proteomics in THP-1 cells, PTK2 level; conditions: PTK2 protein log2 fold change, 24 h, 1.0 μM
T4 construct: endogenous in cells; host or cells: THP-1
Procedure: as §1, §2, §3, §4, §5

T4 sequence (Q05397 whole entry): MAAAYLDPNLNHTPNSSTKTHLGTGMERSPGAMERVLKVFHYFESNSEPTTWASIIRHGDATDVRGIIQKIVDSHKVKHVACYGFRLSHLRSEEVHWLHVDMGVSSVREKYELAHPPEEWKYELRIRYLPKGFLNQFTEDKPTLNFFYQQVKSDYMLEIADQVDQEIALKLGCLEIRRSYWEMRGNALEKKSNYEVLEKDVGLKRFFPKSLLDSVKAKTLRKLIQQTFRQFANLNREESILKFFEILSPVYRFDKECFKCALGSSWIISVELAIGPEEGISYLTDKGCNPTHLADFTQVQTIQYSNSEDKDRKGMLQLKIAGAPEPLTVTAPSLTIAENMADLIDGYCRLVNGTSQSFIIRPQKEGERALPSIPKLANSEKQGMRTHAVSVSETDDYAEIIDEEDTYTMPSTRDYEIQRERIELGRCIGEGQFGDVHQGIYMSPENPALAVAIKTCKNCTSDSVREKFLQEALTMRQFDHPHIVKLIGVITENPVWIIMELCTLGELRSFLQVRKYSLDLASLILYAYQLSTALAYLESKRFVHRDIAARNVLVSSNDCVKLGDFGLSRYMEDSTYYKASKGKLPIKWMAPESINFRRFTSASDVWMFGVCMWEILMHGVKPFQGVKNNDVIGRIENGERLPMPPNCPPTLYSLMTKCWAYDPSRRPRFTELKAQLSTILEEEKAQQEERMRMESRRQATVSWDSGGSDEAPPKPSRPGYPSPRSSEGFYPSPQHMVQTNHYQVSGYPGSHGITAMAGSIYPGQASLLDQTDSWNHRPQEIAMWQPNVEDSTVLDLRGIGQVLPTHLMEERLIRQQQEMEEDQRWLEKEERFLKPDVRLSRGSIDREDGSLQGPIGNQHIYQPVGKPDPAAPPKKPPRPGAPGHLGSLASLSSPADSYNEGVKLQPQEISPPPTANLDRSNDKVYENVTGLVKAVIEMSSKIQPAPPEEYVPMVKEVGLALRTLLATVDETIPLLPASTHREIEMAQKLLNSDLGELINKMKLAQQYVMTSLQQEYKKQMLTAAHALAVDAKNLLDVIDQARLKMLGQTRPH
T3 sequence (Q06187 whole entry): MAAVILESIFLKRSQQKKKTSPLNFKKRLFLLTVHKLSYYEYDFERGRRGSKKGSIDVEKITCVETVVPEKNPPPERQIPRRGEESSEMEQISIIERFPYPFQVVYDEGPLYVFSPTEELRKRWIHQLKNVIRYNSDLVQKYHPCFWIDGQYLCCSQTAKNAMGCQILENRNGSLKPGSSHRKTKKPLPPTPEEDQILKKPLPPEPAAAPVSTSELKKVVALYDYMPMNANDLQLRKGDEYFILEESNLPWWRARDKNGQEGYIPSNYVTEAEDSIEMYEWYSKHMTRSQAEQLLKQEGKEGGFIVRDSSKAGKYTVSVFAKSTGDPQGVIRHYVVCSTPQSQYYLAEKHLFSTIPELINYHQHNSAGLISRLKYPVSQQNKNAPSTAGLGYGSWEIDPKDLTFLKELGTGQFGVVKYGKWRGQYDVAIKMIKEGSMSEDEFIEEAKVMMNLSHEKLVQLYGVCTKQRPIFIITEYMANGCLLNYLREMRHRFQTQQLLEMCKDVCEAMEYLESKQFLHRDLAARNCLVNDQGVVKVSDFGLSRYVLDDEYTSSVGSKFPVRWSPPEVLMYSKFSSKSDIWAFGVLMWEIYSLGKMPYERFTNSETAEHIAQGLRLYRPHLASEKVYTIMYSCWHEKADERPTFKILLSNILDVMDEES

SMILES: CNC(=O)c1ccccc1Nc1nc(Nc2ccc(N3CCN(CCOCCOCCOCCOc4ccc5c(c4)CN(C(=O)[C@@H](NC(=O)[C@H](C)NC)C(C)(C)C)[C@H](C(=O)N[C@@H]4CCCc6ccccc64)C5)CC3)cc2)ncc1Cl [IAP, (S)-7-(2-(2-(2-(2-(4-(4-((5-Chloro-4-((2-(methylcarbamoyl)phenyl)amino)pyrimidin-2-yl)amino)phenyl)piperazin-1-yl)ethoxy)ethoxy)ethoxy)ethoxy)-2-((S)-3,3-dimethyl-2-((S)-2-(methylamino)propanamido)butanoyl)-N-((R)-1,2,3,4-tetrahydronaphthalen-1-yl)-1,2,3,4-tetrahydroisoquinoline-3-carboxamide]
- log2fc_IAP_24 h_1.0 μM_n1 ([1]; replicate n1): −2.28
- log2fc_IAP_24 h_1.0 μM_n2 ([1]; replicate n2): −2.47
- log2fc_IAP_24 h_1.0 μM_n1 ([2]; replicate n1): −1.81
- log2fc_IAP_24 h_1.0 μM_n2 ([2]; replicate n2): −1.42
- log2fc_IAP_24 h_1.0 μM_n1 ([3]; replicate n1): −1.53
- log2fc_IAP_24 h_1.0 μM_n2 ([3]; replicate n2): −1.66
- log2fc_IAP_24 h_1.0 μM_n1 ([4]; replicate n1): −0.90
- log2fc_IAP_24 h_1.0 μM_n2 ([4]; replicate n2): −1.00
